Assay results taken from PubChem BioAssay AID720578 (The Scripps Research Institute Molecular Screening Center, 2013).
Activity calls are given as the source filed them. The rule behind the calls is not given here.

Molecular target: Crimean-Congo hemorrhagic fever virus L protein viral ovarian tumor (vOTU) protease domain
Test: CCHFV vOTU protease inhibitor potency, dose response, biochemical, fluorescence, Pep-AMC substrate (AID 720578)
Conditions: recombinant CCHFV vOTU, Pep-AMC fluorescence cleavage

SMILES | IC50
COc1ccc(S(=O)(=O)/N=C2\C=C(Nc3ccc(O)cc3)C(=O)c3ccccc32)cc1 | 0.375 µM
NS(=O)(=O)c1ccc(NC2=CC(=O)C(=O)c3ccccc32)cc1 | 4.85 µM
CC(=O)c1ccc(NC(=S)Nc2cccc3cnccc23)cc1 | 6.84 µM
C=CCN(CC=C)C(=S)Nc1ccc2nsnc2c1 | inactive
O=C(COC(=O)c1ccc([N+](=O)[O-])s1)Nc1ccc(Cl)cn1 | 8.32 µM
COc1ccc(/C=N/NC(=O)c2nn(-c3ccc(Cl)cc3)c(=O)c3c(N)scc23)cc1 | inactive
COc1cc(NCCCCCCN)c2ncccc2c1OC | 3.65 µM
O=C(COC(=O)c1ccc([N+](=O)[O-])s1)Nc1ccc(F)cc1 | 7.79 µM
O=C1C(Nc2ccccc2)=C(N2CCCCC2)C(=O)c2ccccc21 | 4.54 µM
CN(C)S(=O)(=O)c1cccc(NC(=S)Nc2cccc3cnccc23)c1 | inactive
CCOC(=O)C1CCN(C(=O)c2c(C)oc3c2C(=O)c2ccccc2C3=O)CC1 | inactive
CC(C)NC1=C(Cl)C(=O)c2ccccc2C1=O | inactive
CCC(CNc1cc(OC)cc2cccnc12)NC1CCCCC1 (stereo not drawn) | 6.32 µM
O=S(=O)(c1ccc2nc(-c3ccco3)c(-c3ccco3)nc2c1)N1CCOCC1 | inactive
COc1cc2c(cc1OC)-c1c(OC)c(OC)cc3c1[C@H](C2)N(C)CC3 | 7 µM
O=[N+]([O-])c1ccccc1-c1ccc(C(=S)N2CCCC2)o1 | inactive
COc1cc(NC(=O)COC(=O)c2ccc([N+](=O)[O-])s2)cc(OC)c1OC | 6.6 µM
CC(=O)N(C1=C(Cl)C(=O)c2ccccc2C1=O)c1ccc(C(=O)O)cc1 | 2.74 µM
CCc1ccc(S(=O)(=O)Nc2cc(SCC(=O)O)c(O)c3ccccc23)cc1 | 7.64 µM
COc1ccc(N2C(=O)[C@@H]3[C@H](C2=O)[C@H]2c4ccccc4C=CN2[C@@H]3C(C)=O)cc1 | inactive
CCC(C)n1c(NC(=O)c2ccccc2)c(C#N)c2nc3ccccc3nc21 (stereo not drawn) | 8.97 µM
Cc1cc(NC2=CC(=O)C(=O)c3ccccc32)no1 | 5.6 µM
CC(C)(C)c1cc[n+](C2=C([O-])c3ccccc3C(=O)/C2=N\S(=O)(=O)c2cccs2)cc1 | 6.78 µM
O=C(O)c1ccc(NC2=C(n3nnc4ccccc43)C(=O)c3ccccc3C2=O)cc1 | 4.59 µM
CC(=O)c1ccc(NC2=C(N3CCOCC3)C(=O)c3ccccc3C2=O)cc1 | inactive
O=S(=O)(Nc1cc2nc3ccccc3nc2n1Cc1ccccc1)c1ccc(Cl)cc1 | 2.57 µM

SMILES | IC50
S=C(Nc1ccc(Cl)cc1)Nc1cccc2cnccc12 | 6.44 µM
O=C(O)c1ccc(NC2=C/C(=N/S(=O)(=O)c3cccs3)c3ccccc3C2=O)cc1 | 0.384 µM
CCCNC1=C(N(C(C)=O)c2cccc(F)c2)C(=O)c2ccccc2C1=O | inactive
Cc1ccccc1-c1cc2c(nn1)-c1ccccc1C2=O | 0.457 µM
CC(=O)N(C1=C(N)C(=O)c2ccccc2C1=O)c1ccccc1 | 8.38 µM
O=C(O)CSc1cc(NS(=O)(=O)c2ccc(Cl)cc2)c2ccccc2c1O | 5 µM
O=C(COC(=O)c1ccc([N+](=O)[O-])s1)NCc1ccc(F)cc1 | 8.08 µM
Cc1ccc(NC2=CC(=O)C(=O)c3ccccc32)cc1 | 7.14 µM
Cc1cnc(C2OCCO2)c2cccc(N)c12 | 2.56 µM
CC(=O)N(C1=C(Cl)C(=O)c2ccccc2C1=O)C1CCCCC1 | 3.54 µM
C[n+]1c(-c2ccccc2)cc2c(=Cc3ccccc3)c3ccccc3n21 | 4.95 µM
Cc1cc2c(cc1C)C(=O)C(Br)=C(N)C2=O | 5.56 µM
O=c1[nH]c(=S)[nH]c2c1C(c1ccc(Br)cc1)c1c([nH]c(=S)[nH]c1=O)O2 | inactive
O=C(O)CSc1cc(NS(=O)(=O)c2cccc([N+](=O)[O-])c2)c2ccccc2c1O | 2.44 µM
O=[N+]([O-])c1cc(O)c2ncccc2c1 | inactive
CC1COCC(C)N1C1=C(Cl)C(=O)c2ccccc2C1=O (stereo not drawn) | 5.07 µM
CC1(OC(=O)C2CCCC2)C(=O)C=C2C=C(c3ccsc3)N(CCCCO)C=C2C1=O (stereo not drawn) | inactive
Clc1ccc(C2=CSC3=Nc4cccc5cccc(c45)N23)cc1 | inactive
O=C1C=C(N2CCOCC2)c2ccccc2C1=O | 4.21 µM
CCOC(=O)c1cc2c(=Cc3ccc(N(C)C)cc3)c3ccccc3n2[n+]1C | 7.38 µM
CC[n+]1c(-c2ccccc2)c2cc(N)ccc2c2ccc(N)cc21 | 1.56 µM
O=C(/C=C/c1ccc([N+](=O)[O-])s1)N1CCCCC1 | inactive
O=C(NC1=C(NC2CCS(=O)(=O)C2)C(=O)c2ccccc2C1=O)c1ccccc1 (stereo not drawn) | 3.93 µM
CCOC(=O)N=Nc1c2ccccc2c2nc3no[nH]c3nc12 | 2.35 µM
O=C(O)c1cc(O)c2c(c1)[C@H]([C@H]1c3cc(C(=O)O)cc(O)c3C(=O)c3c(O[C@@H]4O[C@H](CO)[C@@H](O)[C@H](O)[C@H]4O)cccc31)c1cccc(OC3O[C@H](CO)[C@@H](O)[C@H](O)[C@H]3O)c1C2=O (stereo partly drawn) | 6.47 µM
CCc1cc[n+](C2=C([O-])c3ccccc3C(=O)/C2=N\S(=O)(=O)c2cccs2)cc1 | 4.4 µM

SMILES | IC50
C[n+]1c(-c2ccccc2)cc2c(=Cc3ccc([N+](=O)[O-])cc3)c3ccccc3n21 | inactive
CC1=C(SCc2ccccc2)C(=O)c2ccccc2C1=O | 2.51 µM
CC(=O)N(C)c1ccc(N=Cc2cc3c(cc2[N+](=O)[O-])OCO3)cc1 | inactive
O=C1C=C(N2CC2)c2ccccc2C1=O | 2.73 µM
CC(=O)Nc1ccc(S(=O)(=O)NC2=C(N3CCN(c4ccc(F)cc4)CC3)C(=O)c3ccccc3C2=O)cc1 | inactive
CCCCCCCCCCCCCCCC[n+]1cccc2ccccc21 | inactive
COc1ccccc1Nc1cc2cc(Br)ccc2c(=O)[nH]1 | 1.05 µM
C[n+]1c2ccccc2nc2ccc(NCCO)cc21 | 5.96 µM
CCOC(=O)c1c(C)[nH]c2c1-c1ccccc1C(=O)C2=O | 0.323 µM
Cc1nc2c(o1)C(=O)c1ccccc1C2=Nc1ccccc1 | 7.89 µM
O=C1C(SCCO)=C(SCCO)C(=O)c2ccccc21 | 2.15 µM
CN(C)CCCNc1cc(O)c2ncccc2c1 | 5.13 µM
O=C(NC(=S)Nc1ccccc1N1CCCC1)c1ccccc1Br | inactive
CC1(C)C=C2C(=NN(c3ccccc3)C(N)=C2C#N)CO1 | 1.83 µM
COC1=C(Br)C(=O)c2nc(C)ccc2C1=O | 9.43 µM
O=C(COC(=O)c1ccc([N+](=O)[O-])s1)Nc1ncc(C(F)(F)F)cc1Cl | 8.84 µM
COc1cc(CCNC2=CC(=O)c3ncccc3C2=O)ccc1O | 5.25 µM
NC1=C(Br)C(=O)c2ncccc2C1=O | 0.435 µM
CCN(CC)CCCC(C)n1c2nc(=O)[nH]c(=O)c-2nc2cc(Cl)ccc21 (stereo not drawn) | 2.5 µM
CN(C)c1ncc(C2=C(Cl)C(=O)C(N3CCCC3)=C(Cl)C2=O)s1 | inactive
Cc1ccc2c(c1C)-c1c(ccc(C)c1C)C(=O)C2=O | 7.79 µM
COCCN1C=C2C(=O)C(C)(OC(=O)C3CCCC3)C(=O)C(c3ccccc3)=C2C=C1CCCC(=O)OC (stereo not drawn) | inactive
O=C1OC(Nc2cc(Br)cc3cccnc23)c2ccccc21 (stereo not drawn) | 5.23 µM
O=C(OCc1nnc(-c2ccccc2)o1)c1ccc([N+](=O)[O-])s1 | 7.52 µM
CCOC(=O)N1CCN(C2=C(NS(=O)(=O)c3ccc(C)cc3)C(=O)c3ccccc3C2=O)CC1 | inactive
COc1ccc(-n2c3nc4ccccc4nc3c3c(=N)oc(C)nc32)cc1 | inactive
